Values of other authors, collected in publication PMC4001449, “Thienoquinolines as Novel Disruptors of the PKCε/RACK2 Protein–Protein Interaction” (Journal of Medicinal Chemistry, 2014).

How the values were obtained:
Conditions in all cases: cited from earlier work
PKCε = biological target: T1, PKCε (Homo sapiens, UniProt Q02156); parameters: method as in PMID 21186251
T1 sequence (Q02156 1-737): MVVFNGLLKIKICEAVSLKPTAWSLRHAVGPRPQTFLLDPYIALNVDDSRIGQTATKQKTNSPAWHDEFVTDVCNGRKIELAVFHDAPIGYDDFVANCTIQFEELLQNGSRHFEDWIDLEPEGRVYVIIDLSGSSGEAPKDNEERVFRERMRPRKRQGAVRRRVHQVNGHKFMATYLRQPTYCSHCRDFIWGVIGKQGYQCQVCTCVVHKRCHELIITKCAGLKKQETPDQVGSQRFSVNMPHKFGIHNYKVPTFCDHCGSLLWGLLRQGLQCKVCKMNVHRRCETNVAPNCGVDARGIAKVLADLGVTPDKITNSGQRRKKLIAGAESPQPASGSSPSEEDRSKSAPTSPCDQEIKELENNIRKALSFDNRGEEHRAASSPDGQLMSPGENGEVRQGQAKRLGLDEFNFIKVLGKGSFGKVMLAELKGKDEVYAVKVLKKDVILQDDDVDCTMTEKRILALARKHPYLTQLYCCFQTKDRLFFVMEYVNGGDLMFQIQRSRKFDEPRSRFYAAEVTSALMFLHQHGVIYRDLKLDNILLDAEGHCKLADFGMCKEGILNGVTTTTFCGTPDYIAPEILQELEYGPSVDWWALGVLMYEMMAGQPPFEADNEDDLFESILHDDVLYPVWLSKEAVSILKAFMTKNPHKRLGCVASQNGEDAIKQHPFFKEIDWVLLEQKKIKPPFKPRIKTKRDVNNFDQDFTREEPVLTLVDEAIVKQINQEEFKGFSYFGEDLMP

PKCη = PKCη (Homo sapiens, UniProt P24723); parameters: method as in PMID 21186251
Sequence of PKCη (P24723 whole entry): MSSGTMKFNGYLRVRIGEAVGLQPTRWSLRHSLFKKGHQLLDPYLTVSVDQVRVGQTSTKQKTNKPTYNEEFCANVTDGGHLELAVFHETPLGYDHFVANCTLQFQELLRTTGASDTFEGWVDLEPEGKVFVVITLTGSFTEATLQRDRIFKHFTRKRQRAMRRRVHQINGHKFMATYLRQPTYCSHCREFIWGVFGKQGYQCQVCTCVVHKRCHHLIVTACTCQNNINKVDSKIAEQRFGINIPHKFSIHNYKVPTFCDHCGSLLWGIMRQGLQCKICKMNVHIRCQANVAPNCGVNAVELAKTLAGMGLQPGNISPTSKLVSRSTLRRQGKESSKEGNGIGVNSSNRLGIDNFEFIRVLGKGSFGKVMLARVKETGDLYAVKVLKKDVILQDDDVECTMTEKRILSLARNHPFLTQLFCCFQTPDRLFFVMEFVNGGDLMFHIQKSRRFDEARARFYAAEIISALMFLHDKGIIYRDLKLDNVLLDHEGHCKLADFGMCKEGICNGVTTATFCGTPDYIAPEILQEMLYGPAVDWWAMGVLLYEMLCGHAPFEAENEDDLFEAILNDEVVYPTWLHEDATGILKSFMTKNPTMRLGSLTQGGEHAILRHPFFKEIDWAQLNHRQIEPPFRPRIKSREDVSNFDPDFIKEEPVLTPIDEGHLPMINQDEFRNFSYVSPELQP

[1] = system: interaction of PKCι and its adaptor protein Par6; parameters: method as in PMID 16861740
ribonucleotide reductase = biological target: ribonucleotide reductase; parameters: method as in PMID 11668483

Compound: O=C1NC(=O)N(Cc2ccccc2)C(=O)/C1=C\c1ccc2c(c1)OCO2 [BAS 02104951]
- Direct inhibition of PKCε (PKCε): inhibited
- Direct inhibition of PKCη (PKCη): inhibited

Compound: O=C(O)CC([S-])C(=O)O.[Au+] (stereo not shown) [aurothiomalate]
- Active concentration range, prevention of PKCι/Par6 interaction [1]: ~10 µM

Compound: hydroxyurea
- IC50 (ribonucleotide reductase): 37.2 µM
